Assay results as given in patent US20110039815A1, “MACROCYCLIC METAL COMPLEXES FOR THEIR USE AS ANTICANCER AGENTS” (priority 2005, published 2011).

How the values were obtained:
[1] = test system: cervical cancer cell line Hela S3; assay: Cell death of cervical cancer cell line Hela S3; type: cell-based
[2] = rat, intravenous injection, approximately 172 mg/kg during a six hour period, 0.7% saline

^Me3TacnRhCl3 [formula 8]
anticancer activity against Hela S3 [1]: positive
Hela cell death rate ([1]; 10^−2 molar preparation (1.5×10^−2 M)): approximately 93.1%
Hela cell death rate ([1]; 10^−3 molar preparation (1.5×10^−3 M)): approximately 90%
complex-related toxicity or side effects [2]: no complex-related toxicity or side effects
stability in water: stable
